pIC50: −log10 of the molar value. Values belong to the compound of their own block, whether it stands above or below them.
Columns and labels:
Histone deacetylase 1 [1] = biological target: T1, Histone deacetylase 1 (Homo sapiens, UniProt Q13547); assay: Inhibition of human recombinant HDAC1 using ZMAL -Z-(Ac)Lys-AMC fluorogenic substrate incubated for 30 mins by microplate reader assay
[2] = biological target: T2, Protein deacetylase HDAC6 (Homo sapiens, UniProt Q9UBN7); assay: Inhibition of human recombinant HDAC6 using ZMAL -Z-(Ac)Lys-AMC fluorogenic substrate incubated for 30 mins by microplate reader assay
T2 sequence (Q9UBN7 whole entry): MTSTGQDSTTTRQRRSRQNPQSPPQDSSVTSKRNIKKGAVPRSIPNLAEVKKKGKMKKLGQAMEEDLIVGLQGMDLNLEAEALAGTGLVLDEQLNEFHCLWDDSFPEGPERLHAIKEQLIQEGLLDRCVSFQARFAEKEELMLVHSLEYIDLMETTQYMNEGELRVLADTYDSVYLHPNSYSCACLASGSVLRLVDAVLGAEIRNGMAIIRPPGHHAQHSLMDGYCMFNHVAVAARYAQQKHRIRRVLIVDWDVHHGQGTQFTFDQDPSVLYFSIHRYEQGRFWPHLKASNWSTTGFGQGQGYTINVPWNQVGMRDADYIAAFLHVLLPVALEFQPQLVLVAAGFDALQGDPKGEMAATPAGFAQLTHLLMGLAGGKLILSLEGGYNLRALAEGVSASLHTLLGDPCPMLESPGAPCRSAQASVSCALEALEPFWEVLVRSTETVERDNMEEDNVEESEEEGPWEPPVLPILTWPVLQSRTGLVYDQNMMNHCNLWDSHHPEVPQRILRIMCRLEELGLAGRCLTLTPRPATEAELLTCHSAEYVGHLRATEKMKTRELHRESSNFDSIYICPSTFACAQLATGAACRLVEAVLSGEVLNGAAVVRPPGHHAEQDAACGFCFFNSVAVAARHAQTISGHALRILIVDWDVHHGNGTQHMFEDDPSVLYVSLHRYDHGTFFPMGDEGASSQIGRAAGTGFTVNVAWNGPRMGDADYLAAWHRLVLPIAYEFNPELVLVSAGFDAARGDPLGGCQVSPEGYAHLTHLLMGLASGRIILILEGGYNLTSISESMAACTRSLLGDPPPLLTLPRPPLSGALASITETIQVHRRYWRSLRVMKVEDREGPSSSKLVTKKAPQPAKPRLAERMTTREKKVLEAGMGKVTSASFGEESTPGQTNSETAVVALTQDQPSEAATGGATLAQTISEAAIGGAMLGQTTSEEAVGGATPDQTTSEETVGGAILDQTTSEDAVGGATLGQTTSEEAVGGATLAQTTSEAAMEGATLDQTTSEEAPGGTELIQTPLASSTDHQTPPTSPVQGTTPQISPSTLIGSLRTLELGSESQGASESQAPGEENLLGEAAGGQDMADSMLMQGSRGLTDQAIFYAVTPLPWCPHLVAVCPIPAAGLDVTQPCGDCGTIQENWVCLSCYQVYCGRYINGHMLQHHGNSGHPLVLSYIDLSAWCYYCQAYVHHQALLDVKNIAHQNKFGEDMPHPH

[3] = biological target: T3, Protein deacetylase HDAC6 (Homo sapiens) (UniProt Q9UBN7); assay: Inhibition of recombinant HDAC6 (unknown origin) using […] fluorogenic peptide as substrate at 5 uM incubated for 1 hr by microplate reader assay
T3 sequence (whole entry): T2 sequence (Q9UBN7 whole entry)

[4] = biological target: Heat shock protein HSP 90-alpha (Homo sapiens) (UniProt P07900); assay: Inhibition of recombinant HSP90 alpha (unknown origin) at 50 uM by fluorescence polarization competitive binding assay
[5] = biological target: T3, Protein deacetylase HDAC6 (Homo sapiens); assay: Inhibition of recombinant HDAC6 (unknown origin) using […] fluorogenic peptide as substrate at 50 uM incubated for 1 hr by microplate reader assay
Histone deacetylase 3 [6] = biological target: T4, Histone deacetylase 3 (Homo sapiens, UniProt O15379); assay: Inhibition of human recombinant HDAC3 incubated for 45 mins by microplate reader assay
T4 sequence (O15379 whole entry): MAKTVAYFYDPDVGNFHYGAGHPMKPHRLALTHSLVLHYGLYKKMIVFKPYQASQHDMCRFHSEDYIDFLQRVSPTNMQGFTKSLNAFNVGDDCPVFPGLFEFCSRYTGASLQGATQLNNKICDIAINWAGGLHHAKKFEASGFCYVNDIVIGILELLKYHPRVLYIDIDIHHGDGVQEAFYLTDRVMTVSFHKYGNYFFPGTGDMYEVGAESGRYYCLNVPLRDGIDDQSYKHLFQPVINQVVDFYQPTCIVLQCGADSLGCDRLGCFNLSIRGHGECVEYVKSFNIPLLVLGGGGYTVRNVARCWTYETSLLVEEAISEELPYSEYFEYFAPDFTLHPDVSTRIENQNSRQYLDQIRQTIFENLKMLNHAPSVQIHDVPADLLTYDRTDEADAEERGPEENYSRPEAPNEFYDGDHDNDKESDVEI

Histone deacetylase 4 = Histone deacetylase 4 (Homo sapiens, UniProt P56524); assay: Inhibition of human recombinant HDAC4 incubated for 45 mins by microplate reader assay
Sequence of Histone deacetylase 4 (P56524 whole entry): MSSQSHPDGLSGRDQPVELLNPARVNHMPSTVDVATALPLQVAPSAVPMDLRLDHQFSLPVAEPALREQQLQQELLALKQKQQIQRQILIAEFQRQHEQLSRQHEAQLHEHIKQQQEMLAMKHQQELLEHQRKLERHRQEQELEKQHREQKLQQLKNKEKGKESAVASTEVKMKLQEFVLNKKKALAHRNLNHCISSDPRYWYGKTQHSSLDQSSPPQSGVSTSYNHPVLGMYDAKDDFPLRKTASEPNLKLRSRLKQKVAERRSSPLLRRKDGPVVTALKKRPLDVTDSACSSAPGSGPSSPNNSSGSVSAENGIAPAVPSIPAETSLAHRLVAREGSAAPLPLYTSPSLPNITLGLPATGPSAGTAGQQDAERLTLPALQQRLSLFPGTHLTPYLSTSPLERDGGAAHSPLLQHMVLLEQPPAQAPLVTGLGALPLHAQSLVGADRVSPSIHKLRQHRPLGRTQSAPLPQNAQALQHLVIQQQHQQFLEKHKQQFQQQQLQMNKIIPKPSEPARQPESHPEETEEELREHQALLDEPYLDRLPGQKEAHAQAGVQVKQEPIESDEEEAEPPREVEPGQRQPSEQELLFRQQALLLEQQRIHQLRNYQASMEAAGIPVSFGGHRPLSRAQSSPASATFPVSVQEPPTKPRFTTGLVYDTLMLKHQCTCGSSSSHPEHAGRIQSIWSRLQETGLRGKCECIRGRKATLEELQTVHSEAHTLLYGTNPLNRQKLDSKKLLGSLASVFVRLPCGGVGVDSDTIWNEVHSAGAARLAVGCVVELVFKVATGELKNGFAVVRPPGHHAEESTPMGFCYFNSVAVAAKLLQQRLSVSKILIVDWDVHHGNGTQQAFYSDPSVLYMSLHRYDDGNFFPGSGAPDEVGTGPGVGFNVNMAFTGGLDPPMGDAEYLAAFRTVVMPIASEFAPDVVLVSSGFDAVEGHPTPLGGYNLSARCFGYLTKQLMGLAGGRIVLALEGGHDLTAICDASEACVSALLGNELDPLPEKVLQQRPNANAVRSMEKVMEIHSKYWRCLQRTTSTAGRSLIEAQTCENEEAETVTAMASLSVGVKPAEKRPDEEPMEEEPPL

[7] = biological target: T2, Protein deacetylase HDAC6; assay: Inhibition of HDAC6 (unknown origin)
Histone deacetylase 1 [8] = biological target: T1, Histone deacetylase 1; assay: Inhibition of HDAC1 (unknown origin)
Histone deacetylase 11 [9] = biological target: T5, Histone deacetylase 11 (Homo sapiens, UniProt Q96DB2); assay: Inhibition of full length human recombinant HDAC11 incubated for 30 to 60 mins by HDAC-Glo I/II assay
T5 sequence (Q96DB2 whole entry): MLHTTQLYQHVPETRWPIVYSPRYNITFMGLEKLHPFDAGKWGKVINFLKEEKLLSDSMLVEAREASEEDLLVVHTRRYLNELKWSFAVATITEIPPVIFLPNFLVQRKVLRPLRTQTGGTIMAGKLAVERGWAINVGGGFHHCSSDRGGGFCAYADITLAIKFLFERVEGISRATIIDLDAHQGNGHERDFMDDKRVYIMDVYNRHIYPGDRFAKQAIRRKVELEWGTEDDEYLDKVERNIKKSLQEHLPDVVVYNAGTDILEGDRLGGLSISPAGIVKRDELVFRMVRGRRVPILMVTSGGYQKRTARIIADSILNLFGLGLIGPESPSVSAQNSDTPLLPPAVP

[10] = biological target: T2, Protein deacetylase HDAC6; assay: Inhibition of full length human recombinant HDAC6 incubated for 30 to 60 mins by HDAC-Glo I/II assay
Histone deacetylase 2 [11] = biological target: T6, Histone deacetylase 2 (Homo sapiens, UniProt Q92769); assay: Inhibition of full length human recombinant HDAC2 incubated for 30 to 60 mins by HDAC-Glo I/II assay
T6 sequence (Q92769 whole entry): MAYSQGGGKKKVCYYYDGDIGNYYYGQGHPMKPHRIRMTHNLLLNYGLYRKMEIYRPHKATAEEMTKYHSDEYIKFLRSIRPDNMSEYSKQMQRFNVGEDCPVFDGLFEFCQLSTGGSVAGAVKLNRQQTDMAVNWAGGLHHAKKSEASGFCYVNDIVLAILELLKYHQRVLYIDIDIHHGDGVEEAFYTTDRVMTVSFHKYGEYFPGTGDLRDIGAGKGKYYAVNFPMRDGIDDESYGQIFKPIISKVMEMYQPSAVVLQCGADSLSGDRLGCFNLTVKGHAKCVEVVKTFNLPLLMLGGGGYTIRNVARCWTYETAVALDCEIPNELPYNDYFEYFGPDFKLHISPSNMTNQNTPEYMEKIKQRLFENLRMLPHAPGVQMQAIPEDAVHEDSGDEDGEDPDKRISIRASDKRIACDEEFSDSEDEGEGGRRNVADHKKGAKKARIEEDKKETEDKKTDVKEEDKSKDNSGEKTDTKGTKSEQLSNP

[12] = biological target: T7, Polyamine deacetylase HDAC10 (Homo sapiens, UniProt Q969S8); assay: Inhibition of full length human recombinant HDAC10 incubated for 30 to 60 mins by HDAC-Glo I/II assay
T7 sequence (Q969S8 whole entry): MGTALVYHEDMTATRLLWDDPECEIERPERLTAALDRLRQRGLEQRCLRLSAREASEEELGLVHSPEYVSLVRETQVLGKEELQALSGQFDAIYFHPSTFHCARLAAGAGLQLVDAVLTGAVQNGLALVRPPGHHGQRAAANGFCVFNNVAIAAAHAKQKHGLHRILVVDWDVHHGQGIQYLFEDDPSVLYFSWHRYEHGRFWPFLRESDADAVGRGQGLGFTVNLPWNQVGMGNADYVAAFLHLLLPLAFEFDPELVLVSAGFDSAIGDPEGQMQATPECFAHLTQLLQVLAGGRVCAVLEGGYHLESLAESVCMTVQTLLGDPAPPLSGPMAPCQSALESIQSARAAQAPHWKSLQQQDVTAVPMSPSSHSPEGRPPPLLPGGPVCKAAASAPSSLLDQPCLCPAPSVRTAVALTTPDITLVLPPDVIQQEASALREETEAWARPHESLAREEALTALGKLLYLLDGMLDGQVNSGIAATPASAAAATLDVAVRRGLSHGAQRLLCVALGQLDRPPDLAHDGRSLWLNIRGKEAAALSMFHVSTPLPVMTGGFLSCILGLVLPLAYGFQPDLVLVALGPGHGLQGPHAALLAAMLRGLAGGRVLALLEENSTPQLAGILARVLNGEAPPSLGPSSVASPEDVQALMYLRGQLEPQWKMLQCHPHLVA

Histone deacetylase 3 [13] = biological target: T4, Histone deacetylase 3; assay: Inhibition of full length human recombinant HDAC3 incubated for 30 to 60 mins by HDAC-Glo I/II assay
Histone deacetylase 8 [14] = biological target: T8, Histone deacetylase 8 (Homo sapiens, UniProt Q9BY41); assay: Inhibition of full length human recombinant HDAC8 incubated for 30 to 60 mins by HDAC-Glo I/II assay
T8 sequence (Q9BY41 whole entry): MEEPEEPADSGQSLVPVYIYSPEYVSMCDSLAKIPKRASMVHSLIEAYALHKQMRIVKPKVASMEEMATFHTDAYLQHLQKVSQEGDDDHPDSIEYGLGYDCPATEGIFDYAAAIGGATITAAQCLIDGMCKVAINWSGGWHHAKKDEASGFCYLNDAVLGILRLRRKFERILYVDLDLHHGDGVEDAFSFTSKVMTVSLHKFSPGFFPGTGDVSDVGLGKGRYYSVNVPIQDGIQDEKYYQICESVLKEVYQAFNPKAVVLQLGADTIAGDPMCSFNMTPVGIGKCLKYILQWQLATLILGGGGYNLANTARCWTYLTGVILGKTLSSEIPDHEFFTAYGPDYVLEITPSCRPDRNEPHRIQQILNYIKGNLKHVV

Histone deacetylase 1 [15] = biological target: T1, Histone deacetylase 1; assay: Inhibition of full length human recombinant HDAC1 incubated for 30 to 60 mins by HDAC-Glo I/II assay
[16] = biological target: T2, Protein deacetylase HDAC6; assay: Inhibition of human recombinant HDAC6 using BML-AK511 as substrate incubated for 60 mins by fluorimetric assay
Histone deacetylase 1 [17] = biological target: T1, Histone deacetylase 1; assay: Inhibition of full length human recombinant HDAC1 expressed in baculovirus infected Sf9 cells using RHKKAc fluorogenic peptide as substrate incubated for 2 hrs
Histone deacetylase 3 [18] = biological target: T4, Histone deacetylase 3; assay: Inhibition of full length human recombinant HDAC3 expressed in baculovirus infected Sf9 cells using RHKKAc fluorogenic peptide as substrate incubated for 2 hrs
[19] = biological target: T7, Polyamine deacetylase HDAC10; assay: Inhibition of full length human recombinant HDAC10 expressed in baculovirus infected Sf9 cells using RHKKAc fluorogenic peptide as substrate incubated for 2 hrs
Histone deacetylase 2 [20] = biological target: T6, Histone deacetylase 2; assay: Inhibition of full length human recombinant HDAC2 expressed in baculovirus infected Sf9 cells using RHKKAc fluorogenic peptide as substrate incubated for 2 hrs
Histone deacetylase 3 [21] = biological target: T4, Histone deacetylase 3
Histone deacetylase 7 = biological target: T9, Histone deacetylase 7 (Homo sapiens, UniProt Q8WUI4); assay: Inhibition of full length human recombinant HDAC7 using Ac-LGK(TFA)-AMC fluorogenic peptide as substrate incubated for 2 hrs by microplate reader assay
T9 sequence (Q8WUI4 whole entry): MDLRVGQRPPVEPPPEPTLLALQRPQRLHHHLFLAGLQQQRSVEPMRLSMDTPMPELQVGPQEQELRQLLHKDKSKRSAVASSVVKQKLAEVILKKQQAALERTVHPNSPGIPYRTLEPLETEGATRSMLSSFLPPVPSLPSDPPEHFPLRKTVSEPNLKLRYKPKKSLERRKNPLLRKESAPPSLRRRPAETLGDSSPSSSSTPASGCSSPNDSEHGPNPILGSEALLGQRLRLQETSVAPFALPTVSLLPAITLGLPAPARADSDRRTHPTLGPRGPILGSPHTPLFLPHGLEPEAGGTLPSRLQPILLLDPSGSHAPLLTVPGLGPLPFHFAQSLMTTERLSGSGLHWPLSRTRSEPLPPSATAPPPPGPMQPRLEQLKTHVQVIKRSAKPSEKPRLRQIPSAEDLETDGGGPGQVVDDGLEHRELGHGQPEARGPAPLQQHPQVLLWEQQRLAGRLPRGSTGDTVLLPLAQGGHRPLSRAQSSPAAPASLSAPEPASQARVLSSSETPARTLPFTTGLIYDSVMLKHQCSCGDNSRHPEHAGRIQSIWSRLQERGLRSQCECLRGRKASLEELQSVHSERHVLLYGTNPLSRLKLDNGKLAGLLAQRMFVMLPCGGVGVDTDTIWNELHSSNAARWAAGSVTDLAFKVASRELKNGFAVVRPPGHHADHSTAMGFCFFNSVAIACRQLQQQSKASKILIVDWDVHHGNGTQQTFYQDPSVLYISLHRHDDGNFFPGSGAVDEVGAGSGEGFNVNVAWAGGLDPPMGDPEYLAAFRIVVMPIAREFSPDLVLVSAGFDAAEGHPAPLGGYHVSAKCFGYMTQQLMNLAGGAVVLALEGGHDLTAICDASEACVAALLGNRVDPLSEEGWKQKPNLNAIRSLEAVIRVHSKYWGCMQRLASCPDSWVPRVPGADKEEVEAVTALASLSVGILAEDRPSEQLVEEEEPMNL

Histone deacetylase 8 [22] = biological target: T8, Histone deacetylase 8; assay: Inhibition of full length human recombinant HDAC8 using RHKKAcKAc-AMC fluorogenic peptide as substrate incubated for 2 hrs by microplate reader assay
Histone deacetylase 11 [23] = biological target: T5, Histone deacetylase 11; assay: Inhibition of full length human recombinant HDAC11 using RHKKAc-AMC fluorogenic peptide as substrate incubated for 2 hrs by microplate reader assay
Histone deacetylase 5 = Histone deacetylase 5 (Homo sapiens, UniProt Q9UQL6); assay: Inhibition of full length human recombinant HDAC5 using Ac-LGK(TFA)-AMC fluorogenic peptide as substrate incubated for 2 hrs by microplate reader assay
Sequence of Histone deacetylase 5 (Q9UQL6 whole entry): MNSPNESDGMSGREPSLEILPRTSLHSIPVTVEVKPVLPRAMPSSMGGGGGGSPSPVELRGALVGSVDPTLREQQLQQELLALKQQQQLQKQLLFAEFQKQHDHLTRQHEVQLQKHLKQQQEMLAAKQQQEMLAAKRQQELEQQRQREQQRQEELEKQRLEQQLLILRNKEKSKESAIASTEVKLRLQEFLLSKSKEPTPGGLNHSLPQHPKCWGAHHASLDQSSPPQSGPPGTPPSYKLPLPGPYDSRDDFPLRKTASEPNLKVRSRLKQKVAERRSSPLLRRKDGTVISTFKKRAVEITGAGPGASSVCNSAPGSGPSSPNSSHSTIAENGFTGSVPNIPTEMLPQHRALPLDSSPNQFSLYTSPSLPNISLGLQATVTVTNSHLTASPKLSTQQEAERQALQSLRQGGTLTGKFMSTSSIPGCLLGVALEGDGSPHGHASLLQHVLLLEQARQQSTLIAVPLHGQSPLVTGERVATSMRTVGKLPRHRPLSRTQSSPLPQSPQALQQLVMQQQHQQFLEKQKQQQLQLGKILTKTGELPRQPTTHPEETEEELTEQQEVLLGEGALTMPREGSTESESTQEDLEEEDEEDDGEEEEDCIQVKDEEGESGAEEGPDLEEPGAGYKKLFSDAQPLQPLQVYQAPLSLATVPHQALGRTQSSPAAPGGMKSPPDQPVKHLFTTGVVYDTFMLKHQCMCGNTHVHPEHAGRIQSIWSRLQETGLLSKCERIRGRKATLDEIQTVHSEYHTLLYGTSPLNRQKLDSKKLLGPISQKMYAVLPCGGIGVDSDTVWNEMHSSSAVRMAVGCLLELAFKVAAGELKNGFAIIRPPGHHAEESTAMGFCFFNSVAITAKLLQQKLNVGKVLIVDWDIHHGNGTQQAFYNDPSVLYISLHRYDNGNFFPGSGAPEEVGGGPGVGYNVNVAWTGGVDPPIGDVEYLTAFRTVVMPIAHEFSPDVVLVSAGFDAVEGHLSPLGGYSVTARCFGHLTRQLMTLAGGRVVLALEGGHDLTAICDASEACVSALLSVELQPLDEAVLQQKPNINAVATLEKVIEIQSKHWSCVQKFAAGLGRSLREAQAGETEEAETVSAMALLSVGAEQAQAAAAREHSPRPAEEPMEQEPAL

T1 sequence (Q13547 whole entry): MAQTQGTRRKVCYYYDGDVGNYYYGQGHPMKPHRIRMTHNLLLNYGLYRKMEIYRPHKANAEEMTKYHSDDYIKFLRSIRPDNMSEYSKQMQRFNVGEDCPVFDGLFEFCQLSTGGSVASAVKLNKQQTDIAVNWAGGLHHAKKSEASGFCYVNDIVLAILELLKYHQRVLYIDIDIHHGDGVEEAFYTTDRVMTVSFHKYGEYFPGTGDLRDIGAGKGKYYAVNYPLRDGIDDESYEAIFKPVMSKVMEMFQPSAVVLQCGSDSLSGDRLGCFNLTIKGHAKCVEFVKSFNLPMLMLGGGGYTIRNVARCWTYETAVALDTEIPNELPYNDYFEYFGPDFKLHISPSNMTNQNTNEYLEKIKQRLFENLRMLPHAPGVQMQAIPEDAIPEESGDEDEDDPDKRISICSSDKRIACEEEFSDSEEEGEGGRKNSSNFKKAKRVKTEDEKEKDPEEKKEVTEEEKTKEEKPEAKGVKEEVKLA

pIC50 (Histone deacetylase 1 [1]): 5.66
pIC50 [2]: 7.24
SMILES: CCCC1=C(Nc2ccc(C(=O)NO)cc2)C2N=CC=CC2=N1 (stereo not drawn)

pIC50 (Histone deacetylase 3 [6]): < 5.00
pIC50 (Histone deacetylase 4): 5.77
SMILES: O=C(NO)c1ccc(CC(=O)N(CCO)c2ccccc2)cc1

pIC50 (Histone deacetylase 11 [9]): < 4.52
pIC50 [10]: 10.00
pIC50 (Histone deacetylase 2 [11]): 6.79
pIC50 [12]: 6.43
pIC50 (Histone deacetylase 3 [13]): 7.19
pIC50 (Histone deacetylase 8 [14]): < 4.52
pIC50 (Histone deacetylase 1 [15]): 6.97
SMILES: COc1ccc2c3c(cccc13)C(=O)N(Cc1ccc(C(=O)NO)cc1)C2=O

pIC50 (Histone deacetylase 3 [21]): 4.53
pIC50 (Histone deacetylase 7): 5.34
pIC50 (Histone deacetylase 8 [22]): 5.43
pIC50 (Histone deacetylase 11 [23]): 5.24
pIC50 (Histone deacetylase 5): 5.39
SMILES: O=C(NO)c1ccc(CN2CCCc3cc(Cl)ccc32)cc1

More lines, now with the values behind:

SMILES: Cc1nc(N)nc(COC(=O)c2cccc(-c3cc(C(F)(F)F)on3)c2)n1
inhibition [3]: 53%
inhibition [4]: 32%
inhibition [5]: 62%

SMILES: CCN(CC)Cc1ccc(Cn2c(=O)c(OCc3ccc(C(=O)NO)cc3)c(-c3cccnc3)c3ccccc32)cc1
pIC50 [7]: 7.94
pIC50 (Histone deacetylase 1 [8]): 6.50

SMILES: O=S(=O)(N1CCN(C2COC2)CC1)N(Cc1ccc(-c2nnc(C(F)(F)F)o2)cn1)c1ccc(F)c(Cl)c1
pIC50 [16]: 7.85

SMILES: CC(C)(C)OC(=O)Nc1cccc(-c2cc(C(=O)NCCc3cc(C(=O)NO)no3)no2)c1
pIC50 (Histone deacetylase 1 [17]): < 4.30
pIC50 (Histone deacetylase 3 [18]): < 4.30
pIC50 [19]: < 4.30
pIC50 (Histone deacetylase 2 [20]): < 4.30

SMILES: CCN(CC)Cc1ccc(Cn2c(=O)c(OCc3ccc(C(=O)NO)cc3)c(-c3ccccc3)c3ccccc32)cc1
pIC50 [7]: 8.16
pIC50 (Histone deacetylase 1 [8]): 6.49

Reference: ChEMBL document CHEMBL5096156, “A Review of Progress in Histone Deacetylase 6 Inhibitors Research: Structural Specificity and Functional Diversity” (J Med Chem, 2021)
